Data on 3 molecules can be found in US8515150B2, “Mathematical image analysis based cell reprogramming with applications for epigenetic and non-epigenetic base induced pluripotent stem cell derivation” (The Charles Stark Draper Laboratory, Inc., priority 2009, dated 2013).

In one data set the test system is fibroblasts. Conditions: added to fibroblasts, alone; cited from earlier work.
Data set [1] deals with hESC. Conditions: independent of feeders or recombinant growth factors; cited from earlier work.
In data set [2] the test system is hESC. The data set can be described thus: TSA toxicity in hESC. The format is cell-based, human.
For data set [3], the system named is hESC. The experiment in a line: BMP4-induced differentiation of hESC colonies. To be noted: hESC line WA07, 100 ng/ml BMP4, 4 days; confirmed by CDX2 immunostaining. The format is cell-based, human. The method, then:
Pluripotent hESC cultures, line WA07 (a, d, g, i) were compared to hESC that were differentiated in vitro for 4 days in culture with 100 ng/ml BMP4 (b, e, h, j). The squamous epithelial monolayer that was formed is trophectoderm, found in the outer shell of blastocysts and destined to form the placenta. Fixed colonies were stained with the DNA dye, Hoechst 33342 (a, b) and with antibodies to the pluripotency marker OCT4 (d) and the trophectoderm marker, CDX2 (e). Morphological differences that are characteristic of the spreading colonies include an increase in cell (c) and nuclear size (f). The Hoechst image of 4 colonies were analyzed for nuclear size and number of nuclei per colony area (average cell area) and differences between pluripotent and trophectoderm colony morphology were significant at p<0.05 by Students T test. Colony morphology in live cells (g, h), not fixed and immunostained as was performed in (a-f), is provided by the distribution of spatial frequencies in the image (i, j). […] Spatial frequencies are higher in pluripotent than in TE colonies and can be more completely measured using wavelet analysis, a generalized 2D, multiscalar measure of image texture. […] Empirical probability density functions (k-l) for three detail subbands of the line scans in (i) and (j) quantify the concept of spatial frequency. […]

With “FGF2: single growth factor added to media or fibroblasts”, in the data set on fibroblasts, the “effect on expression of endogenous pluripotency markers” value is on record as “increased expression of endogenous pluripotency markers”. Regarding `CC(/C=C/C(=O)NO)=C\[C@@H](C)C(=O)c1ccc(N(C)C)cc1` [TSA, trichostatin A], in the data set with hESC [1], the effect on self-renewal entry is “activates a self-renewal program in hESC”. Further, the “highest concentration without toxic effects” value in the data set on hESC [2] amounted to 1 nM.

B1: BMP4: growth factor bone morphogenic protein, BMP4 (protein, UniProt P12644 293-408, looked up)
Bone morphogenetic protein 4: SPKHHSQRARKKNKNCRRHSLYVDFSDVGWNDWIVAPPGYQAFYCHGDCPFPLADHLNSTNHAIVQTLVNSVNSSIPKACCVPTELSAISMLYLDEYDKVVLKNYQEMVVEGCGCR
As to B1, in the data set on hESC [3], the differentiation outcome was “form trophectoderm”.
